Where a SMILES comes first, the peptide text is derived from it. Bridges are numbered along the chain shown (N, C = ends). Where no end group is shown, it is not given here.

Usually half-life stands for the time in which the quantity being followed falls by half.

The nature of series [1]: Circular dichroism spectroscopy, percent α-helix. In kind it is physicochemical. Conditions: CD spectroscopy. The source says: Circular Dichroism (CD) Spectroscopy.
(In general: CD spectra are sensitive to the conformation of chiral molecules.)

The conditions of series [2]: 25° C., PBS buffer, glutathione 10 mM, over 24 h.
The target in series [3] is T1, cathepsin G (Homo sapiens, UniProt P08311).
T1 sequence (P08311 21-244): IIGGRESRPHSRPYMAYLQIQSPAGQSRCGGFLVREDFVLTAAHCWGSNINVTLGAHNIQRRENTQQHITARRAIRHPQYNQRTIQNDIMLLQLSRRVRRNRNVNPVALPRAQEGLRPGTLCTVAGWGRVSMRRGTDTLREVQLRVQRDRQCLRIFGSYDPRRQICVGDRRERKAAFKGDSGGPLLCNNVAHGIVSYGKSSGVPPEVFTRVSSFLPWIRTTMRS
The series can be described thus: Proteolytic stability in the presence of cathepsin G. The format is in vitro ADME. The following applies: cathepsin G (25 μg/ml) in RPMI 1640; 100 μM peptide, 25 μg/mL cathepsin G, cell culture medium, room temperature.

Series [4] deals with T2, synthetic 24-108MDMX (p53-binding domain of MDMX) (UniProt O15151 24-108).
T2 sequence (looked up): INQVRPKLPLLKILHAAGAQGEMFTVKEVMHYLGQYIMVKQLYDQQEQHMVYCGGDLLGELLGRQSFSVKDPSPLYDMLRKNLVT
The series can be described thus: FP competition: the peptide displaces TAMRA-PMI (10 nM) from MDMX (50 nM).

Series [5] concerns the target T3, synthetic 25-109MDM2 (p53-binding domain of MDM2) (UniProt Q00987 25-109).
T3 construct: range 25-109
The series can be described thus: SPR competition in solution: MDM2 at 25 nM incubated with the peptide, free MDM2 read on a chip with immobilised 15-29p53.

Series [6] deals with T2, synthetic 24-108MDMX (p53-binding …). The series can be described thus: SPR competition in solution: MDMX at 100 nM incubated with the peptide, free MDMX read on a chip with immobilised 15-29p53.
In series [7] the target is T3, synthetic 25-109MDM2 (p53-binding …). The series can be described thus: FP competition: the peptide displaces TAMRA-PMI (10 nM) from MDM2 (50 nM) [left panel].
The target is the same in series [8]. Nature of the series: FP competition: the peptide displaces TAMRA-PMI (10 nM) from MDM2 (50 nM).
For series [9], the target named is T2, synthetic 24-108MDMX (p53-binding …). The series can be described thus: FP competition: the peptide displaces TAMRA-PMI (10 nM) from MDMX (50 nM) [right panel].
In series [10] the target is T3, synthetic 25-109MDM2 (p53-binding …). Nature of the series: SPR competition in solution: MDM2 at 25 nM incubated with the peptide, free MDM2 read on a chip with immobilised 15-29p53. The source holds these as a separate data set.
Series [11] shares this target. Nature of the series: FP competition: the peptide displaces TAMRA-PMI (10 nM) from MDM2 (50 nM). This is another data set of the same source.
The target in series [12] is T2, synthetic 24-108MDMX (p53-binding …). Nature of the series: SPR competition in solution: MDMX at 100 nM incubated with the peptide, free MDMX read on a chip with immobilised 15-29p53. The source holds these as a separate data set.

For `CC(=O)N[C@H]1CSC(=S)NCCCC[C@@H](C(=O)N[C@@H](Cc2ccc(O)cc2)C(=O)N[C@@H](Cc2c[nH]c3ccccc23)C(=O)N[C@@H](CC(N)=O)C(=O)N[C@@H](CC(C)C)C(=O)N[C@@H](CC(C)C)C(=O)N[C@@H](CO)C(=O)N2CCC[C@H]2C(N)=O)NC(=O)[C@H](C)NC(=O)[C@H](Cc2ccccc2)NC(=O)[C@H](CO)NC1=O` [PMI(1,5)-b], the “α-helix (%)” value in series [1] (Table 3) was 7.6%; in series [1] (Table 7), 8.38%.
Turning to `CC(=O)N[C@H](C(=O)N[C@@H](CO)C(=O)N[C@@H](Cc1ccccc1)C(=O)N[C@H]1CSC(=S)NCCCC[C@@H](C(=O)N[C@@H](CC(C)C)C(=O)N[C@@H](CC(C)C)C(=O)N[C@@H](CO)C(=O)N2CCC[C@H]2C(N)=O)NC(=O)[C@H](Cc2c[nH]c3ccccc23)NC(=O)[C@H](Cc2ccc(O)cc2)NC(=O)[C@H](CCC(=O)O)NC1=O)[C@@H](C)O` [PMI(4,8)-b], the “α-helix (%)” value was 5.6% in series [1] (Table 3) and 9.15% in series [1] (Table 7).
Take `CC(=O)N[C@H](C(=O)N[C@@H](CO)C(=O)N[C@@H](Cc1ccccc1)C(=O)N[C@@H](C)C(=O)N[C@@H](CCC(=O)O)C(=O)N[C@@H](Cc1ccc(O)cc1)C(=O)N[C@@H](Cc1c[nH]c2ccccc12)C(=O)N[C@H]1CSC(=S)NCCCC[C@@H](C(N)=O)NC(=O)[C@H](CO)NC(=O)[C@H](CC(C)C)NC(=O)[C@H](CC(C)C)NC1=O)[C@@H](C)O` [PMI(8,12)-b]: the “α-helix (%)” value in series [1] (Table 3) was determined as 0%; in [1] (Table 7), 0.23%.
In the case of `CC(=O)N[C@H](C(=O)N[C@@H](CO)C(=O)N[C@@H](Cc1ccccc1)C(=O)N[C@@H](C)C(=O)N[C@H]1CSC(=S)NCCCC[C@@H](C(=O)N[C@@H](CC(C)C)C(=O)N[C@@H](CO)C(=O)N2CCC[C@H]2C(N)=O)NC(=O)[C@H](CC(N)=O)NC(=O)[C@H](Cc2c[nH]c3ccccc23)NC(=O)[C@H](Cc2ccc(O)cc2)NC1=O)[C@@H](C)O` [PMI(5,9)-b], the “α-helix (%)” value in series [1] (Table 3) amounted to 0%; in [1] (Table 7), 9.58%.
In the same order, the values of `CC(=O)N[C@H](C(=O)N[C@H]1CCCCNC(=S)SC[C@@H](C(=O)N[C@@H](Cc2c[nH]c3ccccc23)C(=O)N[C@@H](CC(N)=O)C(=O)N[C@@H](CC(C)C)C(=O)N[C@@H](CC(C)C)C(=O)N[C@@H](CO)C(=O)N2CCC[C@H]2C(N)=O)NC(=O)[C@H](CCC(=O)O)NC(=O)[C@H](C)NC(=O)[C@H](Cc2ccccc2)NC1=O)[C@@H](C)O` [PMI(2,6)-a] are 5.9% and 15.3%.
In the same order, the values of `CC(=O)N[C@H](C(=O)N[C@@H](CO)C(=O)N[C@@H](Cc1ccccc1)C(=O)N[C@@H](C)C(=O)N[C@H]1CCCCNC(=S)SC[C@@H](C(=O)N[C@@H](CC(C)C)C(=O)N[C@@H](CO)C(=O)N2CCC[C@H]2C(N)=O)NC(=O)[C@H](CC(N)=O)NC(=O)[C@H](Cc2c[nH]c3ccccc23)NC(=O)[C@H](Cc2ccc(O)cc2)NC1=O)[C@@H](C)O` [PMI(5,9)-a] are 0% and 6.88%.
For `CC(=O)N[C@H](C(=O)N[C@H]1CSC(=S)NCCCC[C@@H](C(=O)N[C@@H](Cc2c[nH]c3ccccc23)C(=O)N[C@@H](CC(N)=O)C(=O)N[C@@H](CC(C)C)C(=O)N[C@@H](CC(C)C)C(=O)N[C@@H](CO)C(=O)N2CCC[C@H]2C(N)=O)NC(=O)[C@H](CCC(=O)O)NC(=O)[C@H](C)NC(=O)[C@H](Cc2ccccc2)NC1=O)[C@@H](C)O` [PMI(2,6)-b] the same measures were 3.1% and 4.81%.
As for `CC(=O)N[C@H](C(=O)N[C@@H](CO)C(=O)N[C@@H](Cc1ccccc1)C(=O)N[C@H]1CCCCNC(=S)SC[C@@H](C(=O)N[C@@H](CC(C)C)C(=O)N[C@@H](CC(C)C)C(=O)N[C@@H](CO)C(=O)N2CCC[C@H]2C(N)=O)NC(=O)[C@H](Cc2c[nH]c3ccccc23)NC(=O)[C@H](Cc2ccc(O)cc2)NC(=O)[C@H](CCC(=O)O)NC1=O)[C@@H](C)O` [PMI(4,8)-a], the “α-helix (%)” value in series [1] (Table 3) amounted to 25%; in series [1] (Table 7), 39.3%.
In the case of `CC(=O)N[C@H](C(=O)N[C@@H](CO)C(=O)N[C@@H](Cc1ccccc1)C(=O)N[C@@H](C)C(=O)N[C@@H](CCC(=O)O)C(=O)N[C@@H](Cc1ccc(O)cc1)C(=O)N[C@@H](Cc1c[nH]c2ccccc12)C(=O)N[C@H]1CCCCNC(=S)SC[C@@H](C(N)=O)NC(=O)[C@H](CO)NC(=O)[C@H](CC(C)C)NC(=O)[C@H](CC(C)C)NC1=O)[C@@H](C)O` [PMI(8,12)-a], in series [2], the “breakdown of the DTC structure in reduced glutathione” value is recorded as “no apparent breakdown of the DTC structure was observed over 24 h”. Besides, the “α-helix (%)” value is listed as 33% in series [1] (Table 3) and 43.3% in series [1] (Table 7). Further, the half-life at 100 μM in [3] is roughly 8 h.
For the molecule `CC(=O)N[C@H]1CCCCNC(=S)SC[C@@H](C(=O)N[C@@H](Cc2ccc(O)cc2)C(=O)N[C@@H](Cc2c[nH]c3ccccc23)C(=O)N[C@@H](CC(N)=O)C(=O)N[C@@H](CC(C)C)C(=O)N[C@@H](CC(C)C)C(=O)N[C@@H](CO)C(=O)N2CCC[C@H]2C(N)=O)NC(=O)[C@H](C)NC(=O)[C@H](Cc2ccccc2)NC(=O)[C@H](CO)NC1=O` [PMI(1,5)-a], the “α-helix (%)” value in [1] (Table 3) is 36%; in series [1] (Table 7) it was 6.50%.
For `CC(=O)N[C@H](C(=O)N[C@@H](CO)C(=O)N[C@@H](Cc1ccccc1)C(=O)N[C@@H](C)C(=O)N[C@@H](CCC(=O)O)C(=O)N[C@@H](Cc1ccc(O)cc1)C(=O)N[C@@H](Cc1c[nH]c2ccccc12)C(=O)N[C@@H](CC(N)=O)C(=O)N[C@@H](CC(C)C)C(=O)N[C@@H](CC(C)C)C(=O)N[C@@H](CO)C(=O)N1CCC[C@H]1C(N)=O)[C@@H](C)O` [PMI-0, reference compound] (Ac-TSFAEYWNLLSP-NH2) the same measures were 0% and 9.77%.

B1: PMI(4,8)-a (peptide)
peptide: Ac-TSFKEYWCLLSP-NH2
modifications: bridge 4-8
notes: Co-crystal with MDMX is PDB 5VK1; also called PMI(4, 8)-1
Consider B1, for which the “IC50 (read off the curve)” value in series [4] was roughly 30 nM; in series [5], roughly 10 nM; in series [6], roughly 50 nM; in series [7], roughly 40 nM; in series [8], roughly 40 nM; in [9], roughly 30 nM. For the same molecule, the “IC50 (read off the curve)” value in series [10] was roughly 10 nM.
As to Ac-TSFAEYWKLLSC-NH2 (bridge 8-12) [PMI(8,12)-a], the “IC50 (read off the curve)” value in series [5] is roughly 10 nM; in [6], 50 to 60 nM; in series [7], roughly 30 nM; in series [8], roughly 30 nM; in [10], roughly 10 nM.

B2: ^DTCp53 (DTC-stapled 16-27p53, Ser20Cys, staple Cys20-Lys24) (peptide, UniProt P04637 16-27, looked up)
peptide: QETFCDLWKLLP
modifications: bridge 5-9
notes: range 16-27; also called stapled p53 peptide
Consider B2, for which the “IC50 (read off the curve)” value in series [11] was roughly 300 nM; in [12], roughly 100 nM.
